According to ChEMBL document CHEMBL5338826, “Design and Synthesis of Inhibitors of the E3 Ligase SMAD Specific E3 Ubiquitin Protein Ligase 1 as a Treatment for Lung Remodeling in Pulmonary Arterial Hypertension” (J Med Chem, 2023):
Values after ≈ are worked out from the molar mass of the structure shown. Active and inactive are the calls of the source. The calls are words filed in the database; no cut-off is given here.

Key:
[1] = AUClast in rat at 3 mg/kg, po; format: ADME, organism-based; details: in vivo
[2] = Half life in rat at 3 mg/kg, po and 1 mg/kg, iv; format: ADME, organism-based; details: in vivo
[3] = Volume of distribution at steady state in rat at 3 mg/kg, po and 1 mg/kg, iv; format: ADME, organism-based; details: in vivo
[4] = molecular target: T1, E3 ubiquitin-protein ligase SMURF1 (Homo sapiens, UniProt Q9HCE7); assay: Stabilization of SMURF1 (unknown origin) assessed as decrease in auto-ubiquitination by measuring increase in protein level by cell-based assay
[5] = Plasma protein binding in rat; format: ADME, cell-free; details: read-out: PPB
[6] = molecular target: E3 ubiquitin-protein ligase SMURF2 (Homo sapiens, UniProt Q9HAU4); assay: Inhibition of SMURF2 (unknown origin) assessed as self-ubiquitination by TR-FRET/biochemical assay
[7] = Cmax in rat at 3 mg/kg, po; format: ADME, organism-based; set-up: dose 3 mg/kg, route po; details: in vivo
[8] = Equilibrium solubility of the compound at pH 6.8; format: physicochemical; details: buffer
[9] = Oral bioavailability in rat at 3 mg/kg; format: ADME, organism-based; details: in vivo
[10] = molecular target: T1, E3 ubiquitin-protein ligase SMURF1; assay: Inhibition of SMURF1 (unknown origin) assessed as self-ubiquitination by TR-FRET/biochemical assay
[11] = species on record: Rattus norvegicus; assay: Anti-remodeling efficacy in hypoxia/Sugen 5416-induced pulmonary arterial hypertension rat model assessed as blocked of progression of phenotype of muscularization in the pulmonary vasculature measured after 14 days relative to control; format: functional, organism-based; details: time 14.0 day
[12] = species on record: Rattus norvegicus; assay: Anti-remodeling efficacy in hypoxia/Sugen 5416-induced pulmonary arterial hypertension rat model assessed as muscularized vessels in the pulmonary vasculature measured after 14 days relative to control; format: functional; details: time 14 day
[13] = species on record: Rattus norvegicus; assay: Anti-remodeling efficacy in hypoxia/Sugen 5416-induced pulmonary arterial hypertension rat model assessed as reversal of vessel muscularization in the pulmonary vasculature measured after 14 days relative to control; format: functional, organism-based; details: time 14.0 day
[14] = Metabolic stability in rat liver microsomes assessed as half life; format: ADME, Microsome
[15] = system: Rattus norvegicus; assay: Anti-remodeling efficacy in hypoxia/Sugen 5416-induced pulmonary arterial hypertension rat model assessed as reversal of vessel muscularization in the pulmonary vasculature at 10 mg/kg measured after 14 days relative to control; format: functional, organism-based; details: time 14.0 day
[16] = system: Rattus norvegicus; assay: Anti-remodeling efficacy in hypoxia/Sugen 5416-induced pulmonary arterial hypertension rat model assessed as reversal of vessel muscularization in the pulmonary vasculature at 3 mg/kg measured after 14 days relative to control; format: functional, organism-based; details: time 14.0 day
[17] = system: Rattus norvegicus; assay: Anti-remodeling efficacy in hypoxia/Sugen 5416-induced pulmonary arterial hypertension rat model assessed as blocked of progression of phenotype of muscularization in the pulmonary vasculature at 3 mg/kg measured after 14 days relative to control; format: functional, organism-based; details: time 14.0 day
[18] = system: Rattus norvegicus; assay: Anti-remodeling efficacy in hypoxia/Sugen 5416-induced pulmonary arterial hypertension rat model assessed as blocked of progression of phenotype of muscularization in the pulmonary vasculature at 10 mg/kg measured after 14 days relative to control; format: functional, organism-based; details: time 14.0 day
[19] = system: Rattus norvegicus; assay: Anti-remodeling efficacy in hypoxia/Sugen 5416-induced pulmonary arterial hypertension rat model assessed as muscularized vessels in the pulmonary vasculature at 10 mg/kg measured till end of the study relative to control; format: functional
[20] = system: Rattus norvegicus; assay: Anti-remodeling efficacy in hypoxia/Sugen 5416-induced pulmonary arterial hypertension rat model assessed as muscularized vessels in the pulmonary vasculature at 10 mg/kg measured after 14 days relative to control; format: functional; details: time 14 day

Chain of E3 ubiquitin-protein ligase SMURF2 (Q9HAU4 whole entry): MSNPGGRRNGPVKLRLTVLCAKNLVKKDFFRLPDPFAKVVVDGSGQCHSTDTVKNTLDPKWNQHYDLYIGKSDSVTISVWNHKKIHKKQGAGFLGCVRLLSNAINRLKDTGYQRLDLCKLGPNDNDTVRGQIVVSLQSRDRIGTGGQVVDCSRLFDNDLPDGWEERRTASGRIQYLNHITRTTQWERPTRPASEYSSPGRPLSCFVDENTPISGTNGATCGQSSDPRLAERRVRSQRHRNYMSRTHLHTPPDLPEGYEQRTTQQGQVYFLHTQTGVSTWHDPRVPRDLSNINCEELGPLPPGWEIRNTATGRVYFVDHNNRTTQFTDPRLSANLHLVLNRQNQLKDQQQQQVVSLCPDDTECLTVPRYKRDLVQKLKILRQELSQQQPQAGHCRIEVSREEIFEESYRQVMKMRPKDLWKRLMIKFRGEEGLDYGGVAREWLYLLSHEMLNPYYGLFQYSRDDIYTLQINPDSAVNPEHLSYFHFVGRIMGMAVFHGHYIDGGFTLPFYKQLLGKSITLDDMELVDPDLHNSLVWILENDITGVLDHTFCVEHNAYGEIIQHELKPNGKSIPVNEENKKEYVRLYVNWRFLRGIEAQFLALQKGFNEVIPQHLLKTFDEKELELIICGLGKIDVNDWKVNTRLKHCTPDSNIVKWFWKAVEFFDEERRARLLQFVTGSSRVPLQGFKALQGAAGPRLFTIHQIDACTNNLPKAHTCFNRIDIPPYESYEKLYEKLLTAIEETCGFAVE
T1 sequence (Q9HCE7 whole entry): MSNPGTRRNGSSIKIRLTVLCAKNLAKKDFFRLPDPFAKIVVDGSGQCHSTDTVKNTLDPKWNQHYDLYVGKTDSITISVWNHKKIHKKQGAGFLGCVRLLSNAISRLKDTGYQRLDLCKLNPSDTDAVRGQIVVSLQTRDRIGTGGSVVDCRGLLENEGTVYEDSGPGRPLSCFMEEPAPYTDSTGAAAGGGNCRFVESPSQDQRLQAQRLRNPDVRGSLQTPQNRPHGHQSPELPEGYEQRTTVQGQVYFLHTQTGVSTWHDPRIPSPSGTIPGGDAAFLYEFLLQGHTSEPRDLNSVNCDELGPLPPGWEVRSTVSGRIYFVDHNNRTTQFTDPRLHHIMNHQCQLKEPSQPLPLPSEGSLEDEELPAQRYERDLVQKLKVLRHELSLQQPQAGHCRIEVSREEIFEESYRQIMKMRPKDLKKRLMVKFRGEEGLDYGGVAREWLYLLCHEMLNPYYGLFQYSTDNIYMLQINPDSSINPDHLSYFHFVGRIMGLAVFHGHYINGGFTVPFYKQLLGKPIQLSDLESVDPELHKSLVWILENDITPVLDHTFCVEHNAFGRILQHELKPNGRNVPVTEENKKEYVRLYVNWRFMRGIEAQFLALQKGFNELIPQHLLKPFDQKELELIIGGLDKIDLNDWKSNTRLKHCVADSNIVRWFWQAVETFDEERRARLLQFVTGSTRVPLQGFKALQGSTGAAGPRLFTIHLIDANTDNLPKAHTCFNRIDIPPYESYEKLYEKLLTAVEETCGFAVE

| EC50 [4] [nM] | solubility thermodynamic [8] [µM] | IC50 [10] [nM] | half-life [14] [min] | SMILES | further results |
| --- | --- | --- | --- | --- | --- |
| 40 | 24 (≈ 6.66 µg/mL) | – | – | Cc1c(C(=O)O)noc1-c1ccc(C2CC2)cc1Cl | AUClast [1]: 2.78 µM·h; half-life [2]: 96 min; Vdss [3]: 1.7 L/kg; fraction unbound [5]: < 0.01; IC50 [6]: 2900 nM; Cmax [7]: 541 nM; bioavailability [9]: 67% |
| – | – | > 10000 | – | COc1cc2ccc3c(C(=O)Nc4c(C)n(C)n(-c5ccccc5)c4=O)noc3c2cc1OC | – |
| > 22000 | – | > 10000 | – | COc1ccc(-c2cc(C(=O)Nc3c(C)n(C)n(-c4ccccc4)c3=O)no2)cc1 | – |
| – | – | – | – | NC(=O)c1ccc(-c2nc(-c3ccccn3)c(-c3ccc4c(c3)OCO4)[nH]2)cc1 [SB-431542] | Activity [11]: Active; Activity [12]: 15%; Activity [13]: inactive |
| 230 | – | 11 | 18.9 | Cc1c(C(=O)Nc2c(C)n(C)n(-c3ccccc3F)c2=O)noc1-c1ccc(C2CC2)cc1Cl | AUClast [1]: 11.6 µM·h; half-life [2]: 114 min; Vdss [3]: 1.5 L/kg; fraction unbound [5]: < 0.01; Activity [15]: Active; Cmax [7]: 1080 nM; Activity [16]: Active; Activity [17]: Active; Activity [18]: Active; bioavailability [9]: 97% |
| 4660 | – | 3000 | – | COc1ccc2c(c1)CCc1c(C(=O)Nc3c(C)n(C)n(-c4ccccc4)c3=O)noc1-2 | IC50 [6]: > 10000 nM |
| 1100 | – | 400 | – | COc1ccc2c(c1)CCCc1c(C(=O)Nc3c(C)n(C)n(-c4ccccc4)c3=O)noc1-2 | – |
| 410 | 13 (≈ 6.18 µg/mL) | 29 | 16.7 | Cc1c(C(=O)Nc2c(C)n(C)n(-c3ccccc3F)c2=O)noc1-c1ccc(Cl)cc1Cl | – |
| 250 | 280 (≈ 126 µg/mL) | 180 | 45.2 | COc1ccc(-c2onc(C(=O)Nc3c(C)n(C)n(-c4ccccc4F)c3=O)c2C)c(C)c1 | – |
| 1600 | 22 (≈ 9.6 µg/mL) | 1000 | 15.8 | COc1ccc(-c2onc(C(=O)Nc3c(C)n(C)n(-c4ccccc4F)c3=O)c2C)cc1 | – |
| 580 | 140 (≈ 61.7 µg/mL) | 180 | 70.5 | Cc1c(C(=O)Nc2c(C)n(C)n(-c3ccccc3F)c2=O)noc1-c1ccc(Cl)cc1 | – |
| 2500 | – | 280 | – | Cc1c(C(=O)Nc2c(C)n(C)n(-c3ccccc3F)c2=O)noc1-c1cc(Cl)ccc1Cl | – |
| 1100 | 530 (≈ 243 µg/mL) | 700 | 30.7 | Cc1c(C(=O)Nc2c(C)n(C)n(-c3ccccc3F)c2=O)noc1-c1ccc(Cl)cc1F | – |
| 600 | – | 200 | – | COc1ccc2c(c1)CCCc1c(C(=O)Nc3c(C)n(C)n(-c4ccccc4F)c3=O)noc1-2 | – |
| 316 | 190 (≈ 89.1 µg/mL) | – | – | Cc1c(C(=O)Nc2c(C)n(C)n(C3CCCCC3)c2=O)nnn1-c1ccc(C2CC2)cc1Cl | AUClast [1]: 7.38 µM·h; half-life [2]: 474 min; Vdss [3]: 2.3 L/kg; Activity [19]: 18%; fraction unbound [5]: < 0.01; IC50 [6]: > 20000 nM; Cmax [7]: 2010 nM; Activity [20]: 10%; bioavailability [9]: 82% |
